Measured values taken from patent publication US8697385B1, “Protein controlling synthesis of collagen and associated methods” (Florida State University Research Foundation, Inc., priority 2009, dated 2014).

B1: HA-tagged LARP6 lacking the C-terminal domain (ΔC-LARP6) (other)
chain: MAQSGGEARPGPKTAVQIRVAIQEAEDVDELEDEEEGAETRGAGDPARYLSPGWGSASEEEPSRGHSGTTASGGENEREDLEQEWKPPDEELIKKLVDQIEFYFSDENLEKDAFLLKHVRRNKLGYVSVKLLTSFKKVKHLTRDWRTTAHALKYSVVLELNEDHRKVRRTTPVPLFPNENLPSKMLLVYDLYLSPKLWALATPQKNGRVQEKVMEHLLKLFGTFGVISSVRILKPGRELPPDIRRISSRYSQVGTQECAIVEFEEVEAAIKAHEFMITESQGKENMKAVLIGMKPPKKKP
notes: Expressed in human lung fibroblasts; also called HA-tagged ΔC-LARP6; C-terminal deletion mutant of LARP6; not shown: HA tag
B2: HA-tagged RBMS3 (other, UniProt Q6XE24 1-437, looked up)
chain: MGKRLDQPQMYPQYTYYYPHYLQTKQSYAPAPHPMAPPSPSTNSSSNNSSNNSSGEQLSKTNLYIRGLPPGTTDQDLIKLCQPYGKIVSTKAILDKNTNQCKGYGFVDFDSPAAAQKAVASLKANGVQAQMAKQQEQDPTNLYISNLPISMDEQELENMLKPFGHVISTRILRDANGVSRGVGFARMESTEKCEVVIQHFNGKYLKTPPGIPAPSEPLLCKFADGGQKKRQNQSKYTQNGRPWPREGEAGMALTYDPTAAIQNGFYSSPYSIATNRMIPQTSITPFIAASPVSTYQVQSTSWMPHPPYVMQPTGAVITPTMDHPMSMQPANMMGPLTQQMNHLSLGTTGTIQSQDRIMILHQLLCQYMTAAAPMQGTYIPQYTPVPPTAVSIEGVVADTSPQTVAPSSQDTSGQQQQIAVDTSNEHAPAYSYQQSKP
notes: Control protein expressed in human lung fibroblasts; not shown: HA tag
B3: HA-tagged full-size LARP6 (other)
chain: MAQSGGEARPGPKTAVQIRVAIQEAEDVDELEDEEEGAETRGAGDPARYLSPGWGSASEEEPSRGHSGTTASGGENEREDLEQEWKPPDEELIKKLVDQIEFYFSDENLEKDAFLLKHVRRNKLGYVSVKLLTSFKKVKHLTRDWRTTAHALKYSVVLELNEDHRKVRRTTPVPLFPNENLPSKMLLVYDLYLSPKLWALATPQKNGRVQEKVMEHLLKLFGTFGVISSVRILKPGRELPPDIRRISSRYSQVGTQECAIVEFEEVEAAIKAHEFMITESQGKENMKAVLIGMKPPKKKPAKDKNHDEEPTASIHLNKSLNKRVEELQYMGDESSANSSSDPESNPTSPMAGRRHAATNKLSPSGHQNLFLSPNASPCTSPWSSPLAQRKGVSRKSPLAEEGRLNCSTSPEIFRKCMDYSSDSSVTPSGSPWVRRRRQAEMGTQEKSPGTSPLLSRKMQTADGLPVGVLRLPRGPDNTRGFHGHERSRACV
notes: Expressed from adenovirus in human lung fibroblasts and immunoprecipitated from cell lysate with anti-HA antibody; also called HA-tagged LARP6; not shown: HA tag

Assays:
human lung fibroblasts = test: Western blot analysis of cellular and medium collagen polypeptides, lung fibroblasts; assay type: cell-based; conditions: 16 h, ML-7 40 μM, blebbistatin 100 μM, vs control cells; for secretion of collagen α1(I) polypeptide into the medium / secretion of collagen α2(I) polypeptide into the medium / secretion/expression of fibronectin: cytochalasin B 20 μM
Protocol: (§1) ML-7, blebbistatin, cytochalasin B, puromycin, and cycloheximide were purchased from Sigma. ML-7 was used at 40 μM, blebbistatin was used at 100 μM, and cytochalasin B was used at 20 μM. Cells were incubated with the drugs for 16 h before analysis. Puromycin (200 μg/ml) and cycloheximide (100 μg/ml) were added to the cells for 2 h. Human lung fibroblasts have been described previously.16 Scleroderma fibroblasts were purchased from the European Collection of Cell Cultures (cell line BM0070) and derived from the skin of a scleroderma patient. MEFs were derived from knock-in mice in which the 5′SL of the collagen α1(I) gene has been mutated (Parsons et al., submitted). Several independent cell isolates were used throughout the study. All cells were cultured in Dulbecco's modified Eagle's medium supplemented with 10% fetal bovine serum for up to 10 passages. Plasmid constructs and adenovirus preparation. The HA-tagged LARP6 clone and the deletion mutants have been described previously.^16 Adenoviruses were constructed by recloning of the constructs into the pAdCMVTRACK vector, followed by recombination with the pAdEasy vector and amplification, as described previously.^48 Expression of each construct was verified by Western blot analysis. The viruses made express both the full-size test protein and the green fluorescent protein (GFP), which is encoded by an independent transcription unit.^48 Expression of GFP served as control for viral transduction. RT-PCR analysis Total cellular RNA was isolated using an RNA isolation kit (Sigma). RT-PCRs were performed with 100 ng of total RNA or using rTth reverse transcriptase (Boca Scientific, Boca Raton, Fla.). [^32P]dCTP was included in the PCR step to label the products, which were resolved on sequencing gels, as described previously.^8,31,49,50 When RNA from polysomal fractions was analyzed, an equal aliquot of each fraction was used. The number of cycles was adjusted to within the linear range of the reaction. The primers used for RT-PCR were as follows: h-collagen α1(I), 5′ primer […] (SEQ ID NO:3) and 3′ primer […] (SEQ ID NO:4); h-collagen α2(I), 5′ primer […] (SEQ ID NO:5) and 3′ primer […] (SEQ ID NO:6).
(§2) Protein concentration was estimated by the Bradford assay, with bovine serum albumin as standard.^51 Western blot analyses of cellular proteins were performed using 50 μg of protein. For Western blot analysis of secreted proteins, equal numbers of cells were seeded, serum-free medium was added to the cells, and incubation continued for 3 h. The medium was collected, and an aliquot was analyzed directly by Western blot analysis. Use of serum free medium in collecting secreted proteins is essential because fetal calf serum contains substantial amounts of collagen and fibronectin.^15,31 For immunostaining, cells were seeded onto glass coverslips. After treatment, the cells were fixed with 4% paraformaldehyde for 30 min at room temperature and permeabilized with 0.5% Triton X-100 in phosphatebuffered saline (PBS) for 10 min. After the cells had been blocked with 10% goat serum/5% bovine serum albumin in PBS for 1 h at room temperature, they were incubated with primary antibody overnight at 4° C., washed, and visualized with AlexaFluor594-conjugated or Cy-2-conjugated secondary antibodies. The cells were mounted using VECTASHIELD mounting medium containing […], 6-diamidino-2-phenylindole (Vector Laboratories), and images were taken by a Leica TCS SP2 AOBS laser confocal microscope equipped with a Chameleon Ti: Sapphire multiphoton laser. Optical sections were processed with LCSLite software.
(§3) To assess the role of nonmuscle myosin in collagen synthesis, we disrupted nonmuscle myosin filaments in two different cell types: primary human lung fibroblasts and primary scleroderma skin fibroblasts. These cells are responsible for lung and skin fibrosis. […]

[1] = test system: primary scleroderma skin fibroblasts; test: Western blot analysis of cellular and medium collagen polypeptides, scleroderma fibroblasts; assay type: cell-based, human; conditions: 16 h, ML-7 40 μM, blebbistatin 100 μM; for secretion of collagen α1(I) polypeptide into the medium / secretion of collagen α2(I) polypeptide into the medium / secretion/expression of fibronectin: cytochalasin B 20 μM
Protocol: as §1, §2, §3

nonmuscle myosin IIB [2] = test: Immunoprecipitation of nonmuscle myosin IIB and RT-PCR of collagen mRNAs; assay type: cell-based, human; conditions: lung fibroblasts; cycloheximide 100 μg/ml or puromycin 200 μg/ml, 2 h
Protocol: ML-7, blebbistatin, cytochalasin B, puromycin, and cycloheximide were purchased from Sigma. ML-7 was used at 40 μM, blebbistatin was used at 100 μM, and cytochalasin B was used at 20 μM. Cells were incubated with the drugs for 16 h before analysis. Puromycin (200 μg/ml) and cycloheximide (100 μg/ml) were added to the cells for 2 h. Human lung fibroblasts have been described previously.16 Scleroderma fibroblasts were purchased from the European Collection of Cell Cultures (cell line BM0070) and derived from the skin of a scleroderma patient. MEFs were derived from knock-in mice in which the 5′SL of the collagen α1(I) gene has been mutated (Parsons et al., submitted). […] [^32P]dCTP was included in the PCR step to label the products, which were resolved on sequencing gels, as described previously.^8,31,49,50 When RNA from polysomal fractions was analyzed, an equal aliquot of each fraction was used. […]
One of the roles of nonmuscle myosin filaments may be to present collagen mRNAs to ribosomes. Therefore, we assessed if the association of collagen mRNAs with nonmuscle myosin is dependent on intact polysomes. […] We then immunoprecipitated nonmuscle myosin from lung fibroblasts treated with cycloheximide or puromycin and analyzed if this can change the pull-down of collagen mRNAs. As control, the association with vimentin was analyzed in the same samples (FIG. 9b). […]

nonmuscle myosin IIB [3] = biological target: T1, nonmuscle myosin IIB (human, UniProt P35580 1-1976, limits assumed); test: co-immunoprecipitation with anti-HA antibody from human lung fibroblasts, Western blot with anti-myosin IIB
T1 construct: Endogenous protein in lysate of human lung fibroblasts, detected by Western blot with anti-myosin IIB (anti-MYH10) antibody; also called MYO IIB; MYH10
T1 sequence (P35580 whole entry): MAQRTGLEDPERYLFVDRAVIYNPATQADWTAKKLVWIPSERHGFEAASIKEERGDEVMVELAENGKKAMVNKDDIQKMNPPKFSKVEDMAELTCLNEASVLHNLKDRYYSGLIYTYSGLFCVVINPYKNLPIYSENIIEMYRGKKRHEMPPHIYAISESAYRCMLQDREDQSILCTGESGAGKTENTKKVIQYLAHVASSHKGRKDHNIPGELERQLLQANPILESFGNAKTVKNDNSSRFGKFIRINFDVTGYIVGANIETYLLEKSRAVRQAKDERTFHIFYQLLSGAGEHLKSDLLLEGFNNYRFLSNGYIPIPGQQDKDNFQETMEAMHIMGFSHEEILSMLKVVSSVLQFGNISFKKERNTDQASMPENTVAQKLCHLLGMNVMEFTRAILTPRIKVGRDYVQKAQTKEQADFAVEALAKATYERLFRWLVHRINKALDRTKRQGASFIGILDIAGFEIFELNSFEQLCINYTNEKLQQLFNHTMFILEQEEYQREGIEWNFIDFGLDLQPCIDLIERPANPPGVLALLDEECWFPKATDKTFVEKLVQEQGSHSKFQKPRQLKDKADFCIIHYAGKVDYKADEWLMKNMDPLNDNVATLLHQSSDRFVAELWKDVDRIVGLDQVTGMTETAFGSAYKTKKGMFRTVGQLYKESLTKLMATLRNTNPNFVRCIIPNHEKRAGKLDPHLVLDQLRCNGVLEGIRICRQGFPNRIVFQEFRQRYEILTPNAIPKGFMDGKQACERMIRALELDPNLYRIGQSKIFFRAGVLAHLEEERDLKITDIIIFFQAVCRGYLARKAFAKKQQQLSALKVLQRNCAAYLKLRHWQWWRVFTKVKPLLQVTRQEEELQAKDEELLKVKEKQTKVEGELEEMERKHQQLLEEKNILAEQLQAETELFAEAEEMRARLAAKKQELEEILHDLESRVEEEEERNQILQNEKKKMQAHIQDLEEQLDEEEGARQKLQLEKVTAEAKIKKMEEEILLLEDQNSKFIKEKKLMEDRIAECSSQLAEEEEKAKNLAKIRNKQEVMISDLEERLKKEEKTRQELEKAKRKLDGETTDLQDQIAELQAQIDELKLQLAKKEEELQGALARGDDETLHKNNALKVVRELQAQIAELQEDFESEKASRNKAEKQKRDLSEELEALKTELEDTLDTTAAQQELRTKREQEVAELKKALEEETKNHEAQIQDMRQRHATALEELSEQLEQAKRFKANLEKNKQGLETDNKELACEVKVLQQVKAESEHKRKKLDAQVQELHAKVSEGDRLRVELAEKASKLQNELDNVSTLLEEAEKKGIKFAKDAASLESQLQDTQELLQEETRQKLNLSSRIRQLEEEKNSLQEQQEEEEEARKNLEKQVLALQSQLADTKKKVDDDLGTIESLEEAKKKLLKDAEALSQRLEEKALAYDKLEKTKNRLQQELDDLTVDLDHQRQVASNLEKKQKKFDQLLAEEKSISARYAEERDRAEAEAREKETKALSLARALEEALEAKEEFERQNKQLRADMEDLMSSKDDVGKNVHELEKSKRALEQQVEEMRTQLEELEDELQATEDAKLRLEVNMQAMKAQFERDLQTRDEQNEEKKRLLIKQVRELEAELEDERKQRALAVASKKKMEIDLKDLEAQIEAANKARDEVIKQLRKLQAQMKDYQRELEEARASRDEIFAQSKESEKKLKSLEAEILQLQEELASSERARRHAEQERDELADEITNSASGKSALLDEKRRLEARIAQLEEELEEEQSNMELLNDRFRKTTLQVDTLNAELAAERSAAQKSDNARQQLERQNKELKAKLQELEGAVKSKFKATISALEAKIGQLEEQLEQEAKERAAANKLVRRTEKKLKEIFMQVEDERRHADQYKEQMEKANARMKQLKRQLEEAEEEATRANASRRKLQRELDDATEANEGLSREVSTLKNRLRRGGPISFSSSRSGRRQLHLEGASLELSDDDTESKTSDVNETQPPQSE
Protocol: (§4) HA, Western blot analysis using anti-HA antibody as control for immunoprecipitation efficiency of the tagged proteins. (c) Experiment as in (b), but Western blot analysis was performed using anti-myosin IIA antibody (MYO IIA). […] Experiment as in (b), but the lysate was treated with Rnase. A prior to immunoprecipitation (lane 1) or was not treated (lanes 2 and 3). The immunoprecipitate was analyzed with anti-myosin IIB antibody (MYO IIB), anti-fibronectin antibody (FIB; as control for specificity), and anti-HA antibody (HA; as control for precipitation efficiency).

nonmuscle myosin IIA = biological target: T2, nonmuscle myosin IIA (human, UniProt P35579 2-1960); test: co-immunoprecipitation with anti-HA antibody from human lung fibroblasts, Western blot with anti-myosin IIA
T2 construct: Endogenous protein in lysate of human lung fibroblasts, detected with anti-myosin IIA antibody; also called MYO IIA
Protocol: as §4

fibronectin = biological target: T3, fibronectin (human, UniProt P02751 32-2477, limits assumed); test: co-immunoprecipitation with anti-HA antibody from human lung fibroblasts, Western blot with anti-fibronectin
T3 construct: Specificity control in the co-immunoprecipitations, detected with anti-fibronectin antibody
T3 sequence (P02751 32-2477 limits assumed): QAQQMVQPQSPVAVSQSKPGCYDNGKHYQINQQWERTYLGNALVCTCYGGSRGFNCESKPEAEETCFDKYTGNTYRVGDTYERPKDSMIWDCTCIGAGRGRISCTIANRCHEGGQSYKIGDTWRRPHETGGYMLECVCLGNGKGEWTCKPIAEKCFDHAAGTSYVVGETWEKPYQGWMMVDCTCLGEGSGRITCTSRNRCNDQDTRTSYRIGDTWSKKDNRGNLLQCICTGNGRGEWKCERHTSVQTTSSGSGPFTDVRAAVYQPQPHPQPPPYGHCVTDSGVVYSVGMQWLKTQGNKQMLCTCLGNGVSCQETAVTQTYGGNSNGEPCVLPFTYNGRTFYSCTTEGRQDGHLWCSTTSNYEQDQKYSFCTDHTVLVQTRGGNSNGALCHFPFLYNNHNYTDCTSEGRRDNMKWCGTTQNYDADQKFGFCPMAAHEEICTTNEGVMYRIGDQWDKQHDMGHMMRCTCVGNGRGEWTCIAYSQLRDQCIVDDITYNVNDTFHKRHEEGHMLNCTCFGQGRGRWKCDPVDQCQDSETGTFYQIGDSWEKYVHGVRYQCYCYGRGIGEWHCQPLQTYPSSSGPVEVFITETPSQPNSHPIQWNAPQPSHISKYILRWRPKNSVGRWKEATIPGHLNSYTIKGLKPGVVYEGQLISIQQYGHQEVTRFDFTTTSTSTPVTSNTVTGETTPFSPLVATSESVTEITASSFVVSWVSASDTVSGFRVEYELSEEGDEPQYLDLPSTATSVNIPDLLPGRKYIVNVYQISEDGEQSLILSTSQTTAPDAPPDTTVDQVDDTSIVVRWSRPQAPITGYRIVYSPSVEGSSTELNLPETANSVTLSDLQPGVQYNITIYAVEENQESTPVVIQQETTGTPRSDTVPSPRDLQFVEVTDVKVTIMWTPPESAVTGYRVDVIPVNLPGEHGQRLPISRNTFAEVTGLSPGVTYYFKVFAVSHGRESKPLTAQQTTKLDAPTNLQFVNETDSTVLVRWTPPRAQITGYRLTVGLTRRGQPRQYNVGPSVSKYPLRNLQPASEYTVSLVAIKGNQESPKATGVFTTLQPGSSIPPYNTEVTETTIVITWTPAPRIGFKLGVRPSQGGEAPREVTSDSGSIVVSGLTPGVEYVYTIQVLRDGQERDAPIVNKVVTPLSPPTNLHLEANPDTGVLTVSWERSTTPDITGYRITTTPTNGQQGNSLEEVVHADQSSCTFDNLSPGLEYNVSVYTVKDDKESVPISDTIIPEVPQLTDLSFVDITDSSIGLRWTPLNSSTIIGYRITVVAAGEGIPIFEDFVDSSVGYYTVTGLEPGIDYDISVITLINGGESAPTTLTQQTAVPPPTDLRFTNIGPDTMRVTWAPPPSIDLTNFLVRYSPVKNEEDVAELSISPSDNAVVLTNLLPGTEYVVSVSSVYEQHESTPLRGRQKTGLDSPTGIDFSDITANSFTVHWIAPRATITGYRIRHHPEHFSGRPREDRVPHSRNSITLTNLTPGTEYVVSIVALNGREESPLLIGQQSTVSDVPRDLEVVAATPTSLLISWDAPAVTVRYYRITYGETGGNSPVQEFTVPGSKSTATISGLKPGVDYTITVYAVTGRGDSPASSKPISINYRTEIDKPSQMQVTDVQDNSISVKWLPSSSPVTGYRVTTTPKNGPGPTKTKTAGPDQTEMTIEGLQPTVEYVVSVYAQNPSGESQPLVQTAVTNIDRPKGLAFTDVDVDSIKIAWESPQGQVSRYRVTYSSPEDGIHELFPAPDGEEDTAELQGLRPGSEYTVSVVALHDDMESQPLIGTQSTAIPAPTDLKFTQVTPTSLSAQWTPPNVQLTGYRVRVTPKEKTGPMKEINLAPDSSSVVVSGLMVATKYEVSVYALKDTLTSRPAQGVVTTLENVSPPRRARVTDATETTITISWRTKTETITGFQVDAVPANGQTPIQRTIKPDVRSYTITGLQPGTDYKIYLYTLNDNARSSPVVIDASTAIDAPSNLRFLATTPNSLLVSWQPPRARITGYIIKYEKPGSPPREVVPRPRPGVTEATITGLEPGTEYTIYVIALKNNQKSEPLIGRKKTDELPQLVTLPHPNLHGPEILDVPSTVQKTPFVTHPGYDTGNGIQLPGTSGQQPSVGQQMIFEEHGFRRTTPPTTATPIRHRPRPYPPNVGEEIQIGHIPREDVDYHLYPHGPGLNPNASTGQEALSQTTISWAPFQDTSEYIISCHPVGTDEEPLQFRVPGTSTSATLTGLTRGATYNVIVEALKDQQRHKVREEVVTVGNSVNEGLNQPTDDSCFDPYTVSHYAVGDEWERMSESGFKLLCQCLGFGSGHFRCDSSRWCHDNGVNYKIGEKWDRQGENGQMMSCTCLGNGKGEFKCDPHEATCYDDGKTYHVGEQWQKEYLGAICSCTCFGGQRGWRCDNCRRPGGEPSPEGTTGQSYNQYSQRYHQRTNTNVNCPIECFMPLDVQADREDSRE

| Molecule | secretion of collagen α1(I) polypeptide into the medium (human lung fibroblasts) | secretion of collagen α2(I) polypeptide into the medium (human lung fibroblasts) | secretion/expression of fibronectin (human lung fibroblasts) | secretion of collagen α1(I) polypeptide into the medium [1] | secretion of collagen α2(I) polypeptide into the medium [1] | secretion/expression of fibronectin [1] | binding result (nonmuscle myosin IIB [3]) | also measured |
| --- | --- | --- | --- | --- | --- | --- | --- | --- |
| Cc1ccc2c(c1)C(=O)C1(O)CCN(c3ccccc3)C1=N2 (centres unmarked) [blebbistatin] | minimally affecting | reduced | small effect | minimally affecting | abolished | small effect |  | intracellular level of collagen α1(I) and α2(I) polypeptides (human lung fibroblasts): unchanged; intracellular level of collagen α1(I) polypeptide [1]: unchanged; intracellular level of collagen α2(I) polypeptide [1]: unchanged |
| C[C@@H]1C[C@@H]([C@H](O)CC2CC(=O)NC(=O)C2)C(=O)[C@@H](C)C1 [cycloheximide] |  |  |  |  |  |  |  | collagen α1(I) and α2(I) mRNAs pulled down with nonmuscle myosin IIB (nonmuscle myosin IIB [2]): both collagen mRNAs were pulled down |
| C=C1[C@@H](C)[C@H]2[C@H](Cc3ccccc3)NC(=O)[C@]23OC(=O)/C=C/[C@H](O)CCC[C@@H](C)C/C=C/[C@H]3[C@@H]1O [cytochalasin B] | diminished | diminished | had an effect | no effect | small effect | small effect |  |  |
| B1 |  |  |  |  |  |  | no binding | binding result (nonmuscle myosin IIA): no binding |
| B2 |  |  |  |  |  |  | no binding |  |
| B3 |  |  |  |  |  |  |  | binding result (fibronectin): no binding |
